# System: MOLM-13 cells
# Test: MOLM-13 cell viability assay (CellTiter-Glo)
# Assay type: cell-based
# Details: Homo sapiens, MOLM-13, 72 h, 3 days, concentration of 1 μM, read-out: Antiproliferative Activity (inhibition, MOLM-13 cell viability)
# Procedure, shortened: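 MOLM-13 AML cells in RPMI 1640 with 10% FBS, seeded at 2,500 cells/well and exposed to compound or DMSO for 3 days at 37° C, 5% CO2. Viability read as CellTiter-Glo luminescence after 10 min shaking.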
row,SMILES,cytotoxicity at 1 µM
1,"COc1cccc(C(=O)C(=O)NCc2cccc3c2CN(C2CCC(=O)NC2=O)C3=O)c1 (stereo not shown) [Compound I-94, 2-(3-methoxyphenyl)-N-((2-(2,6-dioxopiperidin-3-yl)-1-oxoisoindolin-4-yl)methyl)-2-oxoacetamide]",< 25%
2,"CN(C)CCOc1cccc(CC(=O)NCc2scc3c2CN(C2CCC(=O)NC2=O)C3=O)c1 (stereo not shown) [II-77, 2-(3-(2-(dimethylamino)ethoxy)phenyl)-N-((5-(2,6-dioxopiperidin-3-yl)-4-oxo-5,6-dihydro-4H-thieno[3,4-c]pyrrol-1-yl)methyl)acetamide]",< 25%
3,"CC(C)(C)c1ccc(C(=O)C(=O)NCc2cccc3c2C(=O)N(C2CCC(=O)NC2=O)C3)cc1 (stereo not shown) [Compound I-38, 2-(4-(tert-butyl)phenyl)-N-((2-(2,6-dioxopiperidin-3-yl)-3-oxoisoindolin-4-yl)methyl)-2-oxoacetamide]",< 25%
4,"Cc1ccc(CC(=O)NCc2cc3c(s2)CN(C2CCC(=O)NC2=O)C3=O)cc1Cl (stereo not shown) [II-79, 2-(3-chloro-4-methylphenyl)-N-((5-(2,6-dioxopiperidin-3-yl)-4-oxo-5,6-dihydro-4H-thieno[2,3-c]pyrrol-2-yl)methyl)acetamide]",< 25%
5,"O=C1CCC(N2Cc3cc(CNC(=O)NCc4c(Cl)cccc4Cl)sc3C2=O)C(=O)N1 (stereo not shown) [II-36, 1-(2,6-dichlorobenzyl)-3-((5-(2,6-dioxopiperidin-3-yl)-6-oxo-5,6-dihydro-4H-thieno[2,3-c]pyrrol-2-yl)methyl)urea]",50 to 80%
6,"CC(C)c1ccc(C(=O)C(=O)NCc2ccc3c(c2)CN(C2CCC(=O)NC2=O)C3=O)s1 (stereo not shown) [Compound I-37, N-((2-(2,6-dioxopiperidin-3-yl)-1-oxoisoindolin-5-yl)methyl)-2-(5-isopropylthiophen-2-yl)-2-oxoacetamide]",> 80%
7,"CC(C)C(C(=O)NCc1scc2c1CN(C1CCC(=O)NC1=O)C2=O)c1ccc(C(C)(C)C)cc1 (stereo not shown) [II-94, 2-(4-(tert-butyl)phenyl)-N-((5-(2,6-dioxopiperidin-3-yl)-4-oxo-5,6-dihydro-4H-thieno[3,4-c]pyrrol-1-yl)methyl)-3-methylbutanamide]",< 25%
8,"CC(C)c1ccc(CC(=O)NCc2scc3c2CN(C2CCC(=O)NC2=O)C3=O)cc1 (stereo not shown) [II-74, N-((5-(2,6-dioxopiperidin-3-yl)-4-oxo-5,6-dihydro-4H-thieno[3,4-c]pyrrol-1-yl)methyl)-2-(4-isopropylphenyl)acetamide]",< 25%
9,"O=C1CCC(N2Cc3c(csc3CNC(=O)C(=O)c3ccc(O)cc3)C2=O)C(=O)N1 (stereo not shown) [Compound I-16, 2-(4-hydroxyphenyl)-N-((5-(2,6-dioxopiperidin-3-yl)-4-oxo-5,6-dihydro-4H-thieno[3,4-c]pyrrol-1-yl)methyl)-2-oxoacetamide]",< 25%
10,"CC(C)(C)c1ccc(C(=O)C(=O)NCc2ccc3c(c2)CN([C@H]2CCCC(=O)NC2=O)C3=O)cc1 [Compound I-10, (S)-2-(4-(tert-butyl)phenyl)-N-((2-(2,7-dioxoazepan-3-yl)-1-oxoisoindolin-5-yl)methyl)-2-oxoacetamide]",> 80%
11,"O=C1CCC(N2Cc3c(csc3CNC(=O)C(=O)c3ccc(C4CC4)cc3)C2=O)C(=O)N1 (stereo not shown) [Compound I-12, 2-(4-cyclopropylphenyl)-N-((5-(2,6-dioxopiperidin-3-yl)-4-oxo-5,6-dihydro-4H-thieno[3,4-c]pyrrol-1-yl)methyl)-2-oxoacetamide]",< 25%
12,"CC(C)(C)c1ccc(S(=O)(=O)NCCc2scc3c2CN(C2CCC(=O)NC2=O)C3=O)cc1 (stereo not shown) [II-131, 4-(tert-butyl)-N-(2-(5-(2,6-dioxopiperidin-3-yl)-4-oxo-5,6-dihydro-4H-thieno[3,4-c]pyrrol-1-yl)ethyl)benzenesulfonamide]",< 25%
13,"O=C1CCC(N2Cc3c(CNC(=O)C(=O)c4cccc(Cl)c4)cccc3C2=O)C(=O)N1 (stereo not shown) [Compound I-88, 2-(3-chlorophenyl)-N-((2-(2,6-dioxopiperidin-3-yl)-1-oxoisoindolin-4-yl)methyl)-2-oxoacetamide]",< 25%
14,"N#Cc1ccc(C(=O)C(=O)NCc2cccc3c2CN(C2CCC(=O)NC2=O)C3=O)cc1 (stereo not shown) [Compound I-76, 2-(4-cyanophenyl)-N-((2-(2,6-dioxopiperidin-3-yl)-1-oxoisoindolin-4-yl)methyl)-2-oxoacetamide]",< 25%
15,"COc1c(F)cccc1CC(=O)NCc1cc2c(s1)C(=O)N(C1CCC(=O)NC1=O)C2 (stereo not shown) [II-116, N-((5-(2,6-dioxopiperidin-3-yl)-6-oxo-5,6-dihydro-4H-thieno[2,3-c]pyrrol-2-yl)methyl)-2-(3-fluoro-2-methoxyphenyl)acetamide]",< 25%
16,"Cc1ccc(NC(=O)NCc2cc3c(s2)C(=O)N(C2CC(=O)NC2=O)C3)cc1Cl (stereo not shown) [II-72, 1-(3-chloro-4-methylphenyl)-3-((5-(2,5-dioxopyrrolidin-3-yl)-6-oxo-5,6-dihydro-4H-thieno[2,3-c]pyrrol-2-yl)methyl)urea]",25 to 50%

row,SMILES,cytotoxicity at 1 µM
1,"Cc1ccc(C(=O)C(=O)NCc2scc3c2CN(C2CCC(=O)NC2=O)C3=O)cc1Cl (stereo not shown) [Compound I-6, 2-(3-chloro-4-methylphenyl)-N-((5-(2,6-dioxopiperidin-3-yl)-4-oxo-5,6-dihydro-4H-thieno[3,4-c]pyrrol-1-yl)methyl)-2-oxoacetamide]",25 to 50%
2,"O=C1CCC(N2Cc3c(CNC(=O)C(=O)c4ccc(Br)cc4)cccc3C2=O)C(=O)N1 (stereo not shown) [Compound I-106, 2-(4-bromophenyl)-N-((2-(2,6-dioxopiperidin-3-yl)-1-oxoisoindolin-4-yl)methyl)-2-oxoacetamide]",< 25%
3,"O=C(Cc1cccc(N2CCCCC2)c1)NCc1scc2c1CN(C1CCC(=O)NC1=O)C2=O (stereo not shown) [II-76, N-((5-(2,6-dioxopiperidin-3-yl)-4-oxo-5,6-dihydro-4H-thieno[3,4-c]pyrrol-1-yl)methyl)-2-(3-(piperidin-1-yl)phenyl)acetamide]",> 80%
4,"CC(C)(C)c1ccc(C(=O)C(=O)NCc2c(F)c(F)cc3c2CN(C2CCC(=O)NC2=O)C3=O)cc1 (stereo not shown) [Compound I-51, 2-(4-(tert-butyl)phenyl)-N-((2-(2,6-dioxopiperidin-3-yl)-5,6-difluoro-1-oxoisoindolin-4-yl)methyl)-2-oxoacetamide]",< 25%
5,"CN1CCC(c2ccc(C(=O)C(=O)NCc3scc4c3CN(C3CCC(=O)NC3=O)C4=O)cc2)CC1 (stereo not shown) [Compound I-31, N-((5-(2,6-dioxopiperidin-3-yl)-4-oxo-5,6-dihydro-4H-thieno[3,4-c]pyrrol-1-yl)methyl)-2-(4-(1-methylpiperidin-4-yl)phenyl)-2-oxoacetamide]",< 25%
6,"Cc1cc(NC(=O)NCc2cc3c(s2)C(=O)N(C2CCC(=O)NC2=O)C3)ccc1N(C)C (stereo not shown) [II-59, 1-(4-(dimethylamino)-3-methylphenyl)-3-((5-(2,6-dioxopiperidin-3-yl)-6-oxo-5,6-dihydro-4H-thieno[2,3-c]pyrrol-2-yl)methyl)urea]",< 25%
7,"CC(C)(C)c1ccc(C(=O)C(=O)NCc2cccc3c2CN(C2CCC(=O)NC2=O)C3=O)cc1 (stereo not shown) [Compound I-28, 2-(4-(tert-butyl)phenyl)-N-((2-(2,6-dioxopiperidin-3-yl)-1-oxoisoindolin-4-yl)methyl)-2-oxoacetamide]",> 80%
8,"O=C1CCC(N2Cc3c(csc3CNC(=O)NCCCOc3ccccc3)C2=O)C(=O)N1 (stereo not shown) [II-145, 1-((5-(2,6-dioxopiperidin-3-yl)-4-oxo-5,6-dihydro-4H-thieno[3,4-c]pyrrol-1-yl)methyl)-3-(3-phenoxypropyl)urea]",50 to 80%
9,"CC(C)(C)c1ccc(C(O)(C(=O)NCc2scc3c2CN(C2CCC(=O)NC2=O)C3=O)C(F)(F)F)cc1 (stereo not shown) [II-133, 2-(4-(tert-butyl)phenyl)-N-((5-(2,6-dioxopiperidin-3-yl)-4-oxo-5,6-dihydro-4H-thieno[3,4-c]pyrrol-1-yl)methyl)-3,3,3-trifluoro-2-hydroxypropanamide]",< 25%
10,"Cc1ccc(C(C(=O)NCc2scc3c2CN(C2CCC(=O)NC2=O)C3=O)C(C)C)cc1Cl (stereo not shown) [II-95, 2-(3-chloro-4-methylphenyl)-N-((5-(2,6-dioxopiperidin-3-yl)-4-oxo-5,6-dihydro-4H-thieno[3,4-c]pyrrol-1-yl)methyl)-3-methylbutanamide]",25 to 50%
11,"CC(C)(C)c1ccc(C2(C(=O)NCc3scc4c3CN(C3CCC(=O)NC3=O)C4=O)CC2)cc1 (stereo not shown) [II-127, 1-(4-(tert-butyl)phenyl)-N-((5-(2,6-dioxopiperidin-3-yl)-4-oxo-5,6-dihydro-4H-thieno[3,4-c]pyrrol-1-yl)methyl)cyclopropane-1-carboxamide]",25 to 50%
12,"O=C1CCC(N2Cc3cc(CNC(=O)C(=O)c4ccc(F)c(F)c4)ccc3C2=O)C(=O)N1 (stereo not shown) [Compound I-93, 2-(3,4-difluorophenyl)-N-((2-(2,6-dioxopiperidin-3-yl)-1-oxoisoindolin-5-yl)methyl)-2-oxoacetamide]",> 80%
13,"O=C1CCC(N2Cc3cc(CCNC(=O)C(=O)c4ccc(C5(C(F)(F)F)CC5)cc4)ccc3C2=O)C(=O)N1 (stereo not shown) [Compound I-52, N-(2-(2-(2,6-Dioxopiperidin-3-yl)-1-oxoisoindolin-5-yl)ethyl)-2-oxo-2-(4-(1-(trifluoromethyl)cyclopropyl)phenyl)acetamide]",25 to 50%
14,"Cc1ccc(CC(=O)NCc2cc3c(s2)C(=O)N(C2CCC(=O)NC2=O)C3)cc1Cl (stereo not shown) [II-30, 2-(3-chloro-4-methylphenyl)-N-((5-(2,6-dioxopiperidin-3-yl)-6-oxo-5,6-dihydro-4H-thieno[2,3-c]pyrrol-2-yl)methyl)acetamide]",< 25%
15,"O=C1CCC(N2Cc3c(csc3CNC(=O)C(=O)c3ccc(C(F)(F)F)cc3)C2=O)C(=O)N1 (stereo not shown) [Compound I-23, 2-(4-trifluoromethylphenyl)-N-((5-(2,6-dioxopiperidin-3-yl)-4-oxo-5,6-dihydro-4H-thieno[3,4-c]pyrrol-1-yl)methyl)-2-oxoacetamide]",< 25%
